Laboratory results reported in patent US9814236B2, “Agricultural or horticultural chemical, method of controlling plant diseases, and product for controlling plant diseases” (Kureha Corporation, priority 2013, dated 2017).
Read-outs that look alike come from different tables or passages of the source.

Columns and labels:
Assay type in all cases: cell-based
[1] = system: wheat damping off (Gaeumannomyces graminis); assay: In vitro antimicrobial activity test on PDA agar plates, 20° C., three days (Test Example 2)
Excerpt: (§1) Additionally, in the above formula, R represents a fungal expansion suppression rate (%), dc represents the diameter of a colony on an untreated plate, and dt represents the diameter of a colony on an chemical-treated plate.
(§2) Inhibition rate during mixed use (theoretical value)=α+((100−α)×β)/100, note that, in the formula above, α and β respectively represent the inhibition rates of the compounds during single use of the compounds.
In the present test example, the antimicrobial properties of a mixed formulation of compound (1) and bixafen on wheat damping off (Gaeumannomyces graminis) were tested.
Meanwhile, wheat damping off was punched out from the periphery of a colony of wheat damping off using a cork borer having a diameter of 4 mm, and inoculated onto the PDA agar plates in which the chemical(s) was(were) mixed.

[2] = system: wheat leaf blight (Septoria tritici); assay: In vitro antimicrobial activity test on PDA agar plates, 20° C., three days (Test Example 1)
Procedure: In the present test example, the antimicrobial properties of a mixed formulation of compound (1) and bixafen on wheat leaf blight (Septoria tritici) were tested.
as §1, §2

[3] = system: wheat leaf blight (Septoria tritici); assay: In vitro antimicrobial activity test on PDA agar plates, 25° C., 14 days (Test Examples 4 to 7)
Procedure: as §1, §2
Testing and determination were performed in the same manner as in Test Example 4 except for using the thiophanate-methyl in place of the boscalid.
Test and determination were performed in the same manner as in Test Example 4 except for using the chlorothalonil in place of the boscalid.

[4] = system: gray mold disease (Botrytis cinerea); assay: In vitro antimicrobial activity test on PDA agar plates, 20° C., two days (Test Examples 3, 8); conditions: Test Example 3
[5] = system: gray mold disease (Botrytis cinerea); assay: as above; conditions: Test Example 8
Procedure: as §1, §2
Test and determination were performed in the same manner as in Test Example 3 except for using the penthiopyrad in place of the isopyrazam.

Q: For `Cn1cc(C(=O)Nc2ccc(F)cc2-c2ccc(Cl)c(Cl)c2)c(C(F)F)n1` [Bixafen, bixafen], which “Fungal growth inhibition rate (%) Measured value” ([1]; Bixafen 0.0393 ppm alone) is on record?
A: Its value is 0%.

Q: What about the “Fungal growth inhibition rate (%) Measured value” ([1]; Bixafen 0.1575 ppm alone) of the same molecule?
A: Its value is 3%.

Q: And the “Fungal growth inhibition rate (%) Measured value” ([1]; Bixafen 0.63 ppm alone)?
A: The value was 4%.

Q: What about the “Fungal growth inhibition rate (%) Measured value” ([1]; Bixafen 2.5 ppm alone) of the same molecule?
A: Its value is 29%.

Q: What about the “Fungal growth inhibition rate (%) Measured value” ([2]; Bixafen 0.0393 ppm alone) of the same molecule?
A: Its value is 0%.

Q: And the “Fungal growth inhibition rate (%) Measured value” ([2]; Bixafen 0.1575 ppm alone)?
A: Its value is 6%.

Q: And the “Fungal growth inhibition rate (%) Measured value” ([2]; Bixafen 0.63 ppm alone)?
A: Its value is 31%.

Q: And the “Fungal growth inhibition rate (%) Measured value” ([2]; Bixafen 2.5 ppm alone)?
A: The value was 54%.

Q: Which inhibition at 0.0393 ppm ([3]; Zymoseptoria tritici, 4TO7, Test Example 4, Boscalid 0.0393 ppm alone, read-out: Fungal growth inhibition rate (%) Measured value) does the source give for `O=C(Nc1ccccc1-c1ccc(Cl)cc1)c1cccnc1Cl` [Boscalid, boscalid] here?
A: The inhibition at 0.0393 ppm was 0%.

Q: What about the inhibition at 0.1575 ppm ([3]; Zymoseptoria tritici, 4TO7, Test Example 4, Boscalid 0.1575 ppm alone, read-out: Fungal growth inhibition rate (%) Measured value) of the same molecule?
A: Its inhibition at 0.1575 ppm is 0%.

Q: And the inhibition at 0.63 ppm ([3]; Zymoseptoria tritici, 4TO7, Test Example 4, Boscalid 0.63 ppm alone, read-out: Fungal growth inhibition rate (%) Measured value)?
A: The inhibition at 0.63 ppm was 31%.

Q: And the inhibition at 2.5 ppm ([3]; Zymoseptoria tritici, 4TO7, Test Example 4, Boscalid 2.5 ppm alone, read-out: Fungal growth inhibition rate (%) Measured value)?
A: Its inhibition at 2.5 ppm is 49%.

Q: What about the inhibition at 10 ppm ([3]; Zymoseptoria tritici, 4TO7, Test Example 4, Boscalid 10 ppm alone, read-out: Fungal growth inhibition rate (%) Measured value) of the same molecule?
A: Its inhibition at 10 ppm is 100%.

Q: What does the source list for `N#Cc1c(Cl)c(Cl)c(Cl)c(C#N)c1Cl` [Chlorothalonil, chlorothalonil]?
A: inhibition at 0.01 ppm ([3]; Zymoseptoria tritici, 4TO7, Test Example 6, Chlorothalonil 0.010 ppm alone, read-out: Fungal growth inhibition rate (%) Measured value): 0%; inhibition at 0.039 ppm ([3]; Zymoseptoria tritici, 4TO7, Test Example 6, Chlorothalonil 0.039 ppm alone, read-out: Fungal growth inhibition rate (%) Measured value): 0%; inhibition at 0.156 ppm ([3]; Zymoseptoria tritici, 4TO7, Test Example 6, Chlorothalonil 0.156 ppm alone, read-out: Fungal growth inhibition rate (%) Measured value): 0%; inhibition at 0.625 ppm ([3]; Zymoseptoria tritici, 4TO7, Test Example 6, Chlorothalonil 0.625 ppm alone, read-out: Fungal growth inhibition rate (%) Measured value): 3%; inhibition at 2.5 ppm ([3]; Zymoseptoria tritici, 4TO7, Test Example 6, Chlorothalonil 2.5 ppm alone, read-out: Fungal growth inhibition rate (%) Measured value): 30%

Q: `COC(=O)C1(C)CCC(Cc2ccc(Cl)cc2)C1(O)Cn1cncn1` (stereo not drawn) [Compound (1), 3-(4-chlorobenzyl)-2-hydroxy-1-methyl-2-(1H-1,2,4-triazol-1-ylmethyl) cyclopentane carboxylic acid methyl] was tested. Which “Fungal growth inhibition rate (%) Measured value” ([4]; Compound (1) 0.078 ppm alone) did it give?
A: Its value is 4%.

Q: And the “Fungal growth inhibition rate (%) Measured value” ([1]; Compound (1) 0.005 ppm alone)?
A: Its value is 0%.

Q: What about the “Fungal growth inhibition rate (%) Measured value” ([3]; Test Example 4, Compound (1) 0.02 ppm alone) of the same molecule?
A: Its value is 0%.

Q: What about the “Fungal growth inhibition rate (%) Measured value” ([3]; Test Example 5, Compound (1) 0.005 ppm alone) of the same molecule?
A: Its value is 23%.

Q: And the “Fungal growth inhibition rate (%) Measured value” ([3]; Test Example 6, Compound (1) 0.005 ppm alone)?
A: Its value is 81%.

Q: And the “Fungal growth inhibition rate (%) Measured value” ([3]; Test Example 7, Compound (1) 0.02 ppm alone)?
A: Its value is 7%.

Q: And the “Fungal growth inhibition rate (%) Measured value” ([5]; Compound (1) 0.078 ppm alone)?
A: The value was 13%.

Q: And the “Fungal growth inhibition rate (%) Measured value” ([2]; Compound (1) 0.005 ppm alone)?
A: The value was 0%.

Q: `Cn1cc(C(=O)Nc2ccccc2-c2cc(F)c(F)c(F)c2)c(C(F)F)n1` [Fluxapyroxad, fluxapyroxad] was tested. Which “Fungal growth inhibition rate (%) Measured value” ([3]; Test Example 7, Fluxapyroxad 0.04 ppm alone) did it give?
A: The value was 11%.

Q: And the “Fungal growth inhibition rate (%) Measured value” ([3]; Test Example 7, Fluxapyroxad 0.16 ppm alone)?
A: The value was 34%.

Q: And the “Fungal growth inhibition rate (%) Measured value” ([3]; Test Example 7, Fluxapyroxad 0.63 ppm alone)?
A: Its value is 74%.

Q: `CC(C)C1C2CCC1c1c(NC(=O)c3cn(C)nc3C(F)F)cccc12` (stereo not drawn) [Isopyrazam, isopyrazam] was tested. Which “Fungal growth inhibition rate (%) Measured value” ([4]; Isopyrazam 0.0393 ppm alone) did it give?
A: Its value is 1%.

Q: And the “Fungal growth inhibition rate (%) Measured value” ([4]; Isopyrazam 0.1575 ppm alone)?
A: The value was 9%.

Q: And the “Fungal growth inhibition rate (%) Measured value” ([4]; Isopyrazam 0.63 ppm alone)?
A: Its value is 23%.

Q: What about the “Fungal growth inhibition rate (%) Measured value” ([4]; Isopyrazam 2.5 ppm alone) of the same molecule?
A: Its value is 35%.

Q: And the “Fungal growth inhibition rate (%) Measured value” ([4]; Isopyrazam 10 ppm alone)?
A: The value was 69%.

Q: Which results are given for `CC(C)CC(C)c1sccc1NC(=O)c1cn(C)nc1C(F)(F)F` (stereo not drawn) [Penthiopyrad, penthiopyrad]?
A: inhibition at 0.63 ppm ([5]; Botrytis cinerea, Penthiopyrad 0.63 ppm alone, read-out: Fungal growth inhibition rate (%) Measured value): 31%; inhibition at 2.5 ppm ([5]; Botrytis cinerea, Penthiopyrad 2.50 ppm alone, read-out: Fungal growth inhibition rate (%) Measured value): 61%; inhibition at 10 ppm ([5]; Botrytis cinerea, Penthiopyrad 10.00 ppm alone, read-out: Fungal growth inhibition rate (%) Measured value): 93%

Q: Which inhibition at 0.01 ppm ([3]; Zymoseptoria tritici, 4TO7, Test Example 5, Thiophanate-methyl 0.010 ppm alone, read-out: Fungal growth inhibition rate (%) Measured value) does the source give for `COC(=O)NC(=S)Nc1ccccc1NC(=S)NC(=O)OC` [Thiophanate-methyl, thiophanate-methyl] here?
A: Its inhibition at 0.01 ppm is 0%.

Q: And the inhibition at 0.039 ppm ([3]; Zymoseptoria tritici, 4TO7, Test Example 5, Thiophanate-methyl 0.039 ppm alone, read-out: Fungal growth inhibition rate (%) Measured value)?
A: The inhibition at 0.039 ppm was 0%.

Q: And the inhibition at 0.156 ppm ([3]; Zymoseptoria tritici, 4TO7, Test Example 5, Thiophanate-methyl 0.156 ppm alone, read-out: Fungal growth inhibition rate (%) Measured value)?
A: The inhibition at 0.156 ppm was 0%.

Q: What about the inhibition at 0.625 ppm ([3]; Zymoseptoria tritici, 4TO7, Test Example 5, Thiophanate-methyl 0.625 ppm alone, read-out: Fungal growth inhibition rate (%) Measured value) of the same molecule?
A: The inhibition at 0.625 ppm was 76%.

Q: And the inhibition at 2.5 ppm ([3]; Zymoseptoria tritici, 4TO7, Test Example 5, Thiophanate-methyl 2.5 ppm alone, read-out: Fungal growth inhibition rate (%) Measured value)?
A: Its inhibition at 2.5 ppm is 100%.
